# Laboratory results as given in ChEMBL document CHEMBL3425403, “De novo design of caseinolytic protein proteases inhibitors based on pharmacophore and 2D molecular fingerprints” (Bioorg Med Chem Lett, 2015).
# Tested on: Staphylococcus aureus
# Experiment: Inhibition of Staphylococcus aureus caseinolytic protein protease using fluorogenic substrate assessed as residual activity at 10 uM after 15 mins
row,SMILES,Activity
1,CCCCCCCCCC[C@@H]1C(=O)O[C@H]1CCCSCCCN(C)C,40%
2,C=CCCCCCCCC[C@H]1OC(=O)[C@@H]1CCCCCCCCCNC(=O)OC(C)(C)C,95%
3,CCCCCCCCCC[C@@H]1C(=O)O[C@H]1CCCCSCCCN(C)C,0%
4,C=CCCCCCCCCC(=O)OC,96%
5,C=CCCCCCCC[C@H]1C(=O)O[C@@H]1CCCCCCCCCCCNC(=O)OC(C)(C)C,105%
6,CCCCCCCCCC[C@@H]1C(=O)O[C@H]1CCCCS(=O)(=O)CCC[N+](C)(C)C,36%
7,C#CCCC[C@@H]1OC(=O)[C@H]1CCCCCCCCCCCC,95%
8,C#CCCCOC(=O)NCCCCCCCC=C,101%
9,CCCCCCCCCC[C@H]1C(=O)O[C@@H]1CCCCCS(=O)(=O)CCCN(C)C,10%
10,CCCCCCCCCC[C@@H]1C(=O)O[C@H]1CCCCCSCCCN(C)C,1%
11,CCCCCCCCCC[C@@H]1C(=O)O[C@H]1CCCCCS(=O)(=O)CCC[N+](C)(C)C,1%
12,CCCCCCCCCC[C@H]1C(=O)O[C@@H]1CCCCS(=O)(=O)CCC[N+](C)(C)C,9%
13,CCCCCCCCCC[C@@H]1C(=O)O[C@H]1CCCS(=O)(=O)CCC[N+](C)(C)C,0%
14,C#CCCCOC(=O)NCCCCC,100%
15,C=CCCCCCCCCC(=O)OC(C)(C)C,103%
16,CCCCCCCCCC[C@H]1C(=O)O[C@@H]1CCCCCS(=O)(=O)CCC[N+](C)(C)C,9%
17,CCCCCCCCCC[C@H]1C(=O)O[C@@H]1CCCS(=O)(=O)CCC[N+](C)(C)C,7%

# Next, values leading:
row,Activity,SMILES
1,0%,C=CCCCCCCC[C@H]1C(=O)O[C@@H]1CCc1cccnc1
2,95%,CCCCCCCCCCCC[C@H]1C(=O)O[C@@H]1CCc1ccccc1
3,108%,O=C1OC[C@H]1CCc1ccccc1
4,11%,CCCCCCCCCC[C@H]1C(=O)O[C@@H]1CCSCCCN(C)C
5,30%,C=CCCCCCCC[C@H]1C(=O)O[C@@H]1CCCCCNC(=O)c1ccc(N(C)C)cc1
6,0%,CCCCCCCCCC[C@@H]1C(=O)O[C@H]1CCCCS(=O)(=O)CCCN(C)C
7,1%,CCCCCCCCCC[C@@H]1C(=O)O[C@H]1CCS(=O)(=O)CCCN(C)C
8,13%,CCCCCCCCCC[C@H]1C(=O)O[C@@H]1CCCCS(=O)(=O)CCCN(C)C
9,5%,CCCCCCCCCC[C@@H]1C(=O)O[C@H]1CCCCCS(=O)(=O)CCCN(C)C
10,0%,CCCCCCCCCC[C@@H]1C(=O)O[C@H]1CCCS(=O)(=O)CCCN(C)C
11,1%,CCCCCCCCCC[C@@H]1C(=O)O[C@H]1CCSCCCN(C)C
12,70%,C=CCCCCCCC[C@H]1C(=O)O[C@@H]1CCc1ccccc1
13,8%,CCCCCCCCCC[C@H]1C(=O)O[C@@H]1CCCS(=O)(=O)CCCN(C)C
14,37%,CCCCCCCCCC[C@H]1C(=O)O[C@@H]1CCS(=O)(=O)CCCN(C)C
15,108%,O=C1OC[C@@H]1CCc1ccccc1
